What was measured:
[1] = Metabolism of paeoniflorin in the homogenate of the liver tissue in vitro; assay type: in vitro ADME, rat; details: 100 μg/mL paeoniflorin, 37°C, 1 h, compared with intestinal bacteria incubation system, ***P < 0.001
Procedure: Fresh rat liver tissue was cut into small pieces, 0.05 M Tris-HC1 buffer (1:2, pH 7.4) was added. The mixture was homogenized in a mixer and paeoniflorin was added to the liver homogenate at a final concentration of 100 μg/mL. Then, the mixture was incubated at 37°C for 1 h. The above reactions were terminated by the addition of 0.4 mL acetonitrile (1:2). Proteins were precipitated by centrifugation at 10,625 g for 5 min, and 10 μL supernatant was injected into the UPLC system for quantification.

[2] = Metabolism of paeoniflorin in liver microsome in vitro; assay type: in vitro ADME; details: 5 μM paeoniflorin, 1 mg/mL protein, NADPH, 37°C, incubation 2 h
Procedure: Samples were incubated at 37°C in a shaker. The incubation mixtures were 0.2 mL of the final volume and the protein concentration was 1 mg/mL. […] The reaction was initiated by the addition of NADPH after a 3 min preincubation at 37°C. The above reactions were terminated by the addition of 0.4 mL acetonitrile (1:2). Proteins were precipitated by centrifugation at 10,625 g for 5 min, and 10 μL supernatant was injected into the UPLC system for quantification.

[3] = Excretion of paeoniflorin in rats (urine, feces, bile); assay type: in vivo, rat; details: normal rats, paeoniflorin 20 mg/kg, excreted form = labelled substance, n = 6
[4] = Brain distribution of paeoniflorin and benzoic acid in rats; assay type: in vivo, rat; details: at 2 h after oral administration of paeoniflorin 20 mg/kg

C[C@@]12C[C@@]3(O)O[C@@H](O1)[C@]1(COC(=O)c4ccccc4)[C@H]3C[C@@]12O[C@@H]1O[C@H](CO)[C@@H](O)[C@H](O)[C@H]1O [Paeoniflorin]
production of benzoic acid in liver tissue homogenate [1]: significantly lower than that in the intestinal bacteria incubation system | benzoic acid production in the liver microsome system [2]: no benzoic acid produced | cumulative excretion rate in bile for 60 h [3]: 0.02% | detection in SD rat brains [4]: not detected

Reference: publication PMC6435784, “Gut Microbiota-Based Pharmacokinetics and the Antidepressant Mechanism of Paeoniflorin” (Frontiers in Pharmacology, 2019)
